# Source: patent US20250360235A1, “RADI[…] AND METHOD FOR RADIOLABELLING” (Telix Innovations SA, priority 2024, published 2025)
# Test: Radiochemical purity by iTLC over time after radiolabelling
# Format: physicochemical
# Experimental: Table 1 to Table 5 show the results of various radiolabelling experiments on radiochemical purity and the chelation yield. The radiolabelling experiments in the tables are carried out as described in: • Example 1 for when the gallium-68 source is GE Liquid target generator and EZAG GalliaPharm generator; • Example 2 for when the gallium-68 source is IRE Galli Eo generator; • Example 3 for when the gallium-68 source is GE solid target generator;
# However, the experiments were carried out with the amount of ascorbic acid as indicated in the Tables 1 to 5, and the activity as indicated in the Tables 1 to 5. Radiochemical purities were measured at various times (T0, T1, T4, T6) after the radiolabelled experiments have been conducted.
# The kits of Example 1, Example 2 or Example 3, with amounts of ascorbic acid as set out in Table 7 were used in the experiments for the ascorbic acid bracketing matrix. Three strengths of [^68Ga]Ga-PSMA-11 will be tested, i.e. 50 mCi/ml, 7 mCi/ml and 1 mCi/ml. Radiochemical purity was determined at different time points (TO, T1, T4 or T6), as set out in Table 7.
# [1] = 15 mg ascorbic acid, 10.0-18.4 mCi, 0.95-1.77 mCi/mL, 1 × EZAG GalliaPharm, 2 × IRE Galli Eo, average of 3, T1 (1 h)
# [2] = 15 mg ascorbic acid, 10.0-18.4 mCi, 0.95-1.77 mCi/mL, 1 × EZAG GalliaPharm, 2 × IRE Galli Eo, n=3, T0
# [3] = 15 mg ascorbic acid, 10.0-18.4 mCi, 0.95-1.77 mCi/mL, 1 × EZAG GalliaPharm, 2 × IRE Galli Eo, n=3, T1 (1 h)
# [4] = 15 mg ascorbic acid, 23.7-47.6 mCi, 2.26-4.53 mCi/mL, 1 × EZAG GalliaPharm, 2 × IRE Galli Eo, average of 3, T0
# [5] = 15 mg ascorbic acid, 23.7-47.6 mCi, 2.26-4.53 mCi/mL, 1 × EZAG GalliaPharm, 2 × IRE Galli Eo, average of 3, T4 (4 h)
# [6] = 15 mg ascorbic acid, 23.7-47.6 mCi, 2.26-4.53 mCi/mL, 1 × EZAG GalliaPharm, 2 × IRE Galli Eo, n=3, T0
# [7] = 15 mg ascorbic acid, 23.7-47.6 mCi, 2.26-4.53 mCi/mL, 1 × EZAG GalliaPharm, 2 × IRE Galli Eo, n=3, T4 (4 h)
# [8] = 20 mg ascorbic acid, 514-544 mCi, 48.3-51.9 mCi/mL, GE Solid Target, average of 2, T0
# [9] = 20 mg ascorbic acid, 514-544 mCi, 48.3-51.9 mCi/mL, GE Solid Target, average of 2, T6 (6 h)
# [10] = 20 mg ascorbic acid, 514-544 mCi, 48.3-51.9 mCi/mL, GE Solid Target, n=2, T0
# [11] = 20 mg ascorbic acid, 514-544 mCi, 48.3-51.9 mCi/mL, GE Solid Target, n=2, T6 (6 h)
# [12] = 25 mg ascorbic acid, 19.5-20.0 mCi, 1.85-1.90 mCi/mL, EZAG GalliaPharm, average of 2, T0
# [13] = 25 mg ascorbic acid, 19.5-20.0 mCi, 1.85-1.90 mCi/mL, EZAG GalliaPharm, average of 2, T1 (1 h)
# [14] = 25 mg ascorbic acid, 19.5-20.0 mCi, 1.85-1.90 mCi/mL, EZAG GalliaPharm, n=2, T0
# [15] = 25 mg ascorbic acid, 19.5-20.0 mCi, 1.85-1.90 mCi/mL, EZAG GalliaPharm, n=2, T1 (1 h)
# [16] = 25 mg ascorbic acid, 23.3-24 mCi, 2.22-2.28 mCi/mL, IRE Galli Eo, average of 2, T0
# [17] = 25 mg ascorbic acid, 23.3-24 mCi, 2.22-2.28 mCi/mL, IRE Galli Eo, average of 2, T4 (4 h)
# [18] = 25 mg ascorbic acid, 23.3-24 mCi, 2.22-2.28 mCi/mL, IRE Galli Eo, n=2, T0
# [19] = 25 mg ascorbic acid, 23.3-24 mCi, 2.22-2.28 mCi/mL, IRE Galli Eo, n=2, T4 (4 h)
# [20] = 25 mg ascorbic acid, 46.0-46.1 mCi, 4.38-4.39 mCi/mL, EZAG GalliaPharm, average of 2, T0
smiles,measurement,setting,value
"O=C([O-])CN(CCN(CC(=O)[O-])Cc1cc(CCC(=O)NCCCCCC(=O)NCCCC[C@H](NC(=O)N[C@@H](CCC(=O)O)C(=O)O)C(=O)O)ccc1[O-])Cc1cc(CCC(=O)O)ccc1[O-].[68Ga+3].[OH3+] [[^68Ga]PSMA-11, gallium-68 radiolabelled Glu-urea-Lys-HBED-CC (gozetotide or PSMA-11)]",Radiochemical Purity (iTLC) Ga-68 PSMA-11 (%),"15 mg ascorbic acid, 10.0-18.4 mCi, 0.95-1.77 mCi/mL, 1 × EZAG GalliaPharm, 2 × IRE Galli Eo, average of 3, T0",100%
same,Radiochemical Purity (iTLC) Free and Colloidal Ga-68 (%),[1],0%
same,Radiochemical Purity (iTLC) Ga-68 PSMA-11 (%),[1],100%
same,Radiochemical Purity (iTLC) Free and Colloidal Ga-68 (%),[2],C (C = conforms to specifications)
same,Radiochemical Purity (iTLC) Ga-68 PSMA-11 (%),[2],C (C = conforms to specifications)
same,Radiochemical Purity (iTLC) Free and Colloidal Ga-68 (%),[3],C (C = conforms to specifications)
same,Radiochemical Purity (iTLC) Ga-68 PSMA-11 (%),[3],C (C = conforms to specifications)
same,Radiochemical Purity (iTLC) Free and Colloidal Ga-68 (%),[4],0%
same,Radiochemical Purity (iTLC) Ga-68 PSMA-11 (%),[4],100%
same,Radiochemical Purity (iTLC) Free and Colloidal Ga-68 (%),[5],0%
same,Radiochemical Purity (iTLC) Ga-68 PSMA-11 (%),[5],100%
same,Radiochemical Purity (iTLC) Free and Colloidal Ga-68 (%),[6],C (C = conforms to specifications)
same,Radiochemical Purity (iTLC) Ga-68 PSMA-11 (%),[6],C (C = conforms to specifications)
same,Radiochemical Purity (iTLC) Free and Colloidal Ga-68 (%),[7],C (C = conforms to specifications)
same,Radiochemical Purity (iTLC) Ga-68 PSMA-11 (%),[7],C (C = conforms to specifications)
same,Radiochemical Purity (iTLC) Free and Colloidal Ga-68 (%),[8],3%
same,Radiochemical Purity (iTLC) Ga-68 PSMA-11 (%),[8],97%
same,Radiochemical Purity (iTLC) Free and Colloidal Ga-68 (%),[9],2%
same,Radiochemical Purity (iTLC) Ga-68 PSMA-11 (%),[9],98%
same,Radiochemical Purity (iTLC) Free and Colloidal Ga-68 (%),[10],C (C = conforms to specifications)
same,Radiochemical Purity (iTLC) Ga-68 PSMA-11 (%),[10],C (C = conforms to specifications)
same,Radiochemical Purity (iTLC) Free and Colloidal Ga-68 (%),[11],C (C = conforms to specifications)
same,Radiochemical Purity (iTLC) Ga-68 PSMA-11 (%),[11],C (C = conforms to specifications)
same,Radiochemical Purity (iTLC) Free and Colloidal Ga-68 (%),[12],2%
same,Radiochemical Purity (iTLC) Ga-68 PSMA-11 (%),[12],98%
same,Radiochemical Purity (iTLC) Free and Colloidal Ga-68 (%),[13],0%
same,Radiochemical Purity (iTLC) Ga-68 PSMA-11 (%),[13],100%
same,Radiochemical Purity (iTLC) Free and Colloidal Ga-68 (%),[14],C (C = all results conform to specifications)
same,Radiochemical Purity (iTLC) Ga-68 PSMA-11 (%),[14],C (C = all results conform to specifications)
same,Radiochemical Purity (iTLC) Free and Colloidal Ga-68 (%),[15],C (C = all results conform to specifications)
same,Radiochemical Purity (iTLC) Ga-68 PSMA-11 (%),[15],C (C = all results conform to specifications)
same,Radiochemical Purity (iTLC) Free and Colloidal Ga-68 (%),[16],1%
same,Radiochemical Purity (iTLC) Ga-68 PSMA-11 (%),[16],99%
same,Radiochemical Purity (iTLC) Free and Colloidal Ga-68 (%),[17],0%
same,Radiochemical Purity (iTLC) Ga-68 PSMA-11 (%),[17],100%
same,Radiochemical Purity (iTLC) Free and Colloidal Ga-68 (%),[18],C (C = all results conform to specifications)
same,Radiochemical Purity (iTLC) Ga-68 PSMA-11 (%),[18],C (C = all results conform to specifications)
same,Radiochemical Purity (iTLC) Free and Colloidal Ga-68 (%),[19],C (C = all results conform to specifications)
same,Radiochemical Purity (iTLC) Ga-68 PSMA-11 (%),[19],C (C = all results conform to specifications)
same,Radiochemical Purity (iTLC) Free and Colloidal Ga-68 (%),[20],0%
same,Radiochemical Purity (iTLC) Ga-68 PSMA-11 (%),[20],100%
